Experimental data from patent US10273468B2 (priority 2016, dated 2019).
Entries after “also recorded” stand apart in the source; their conditions may differ. Read-outs that look alike come from different tables or passages of the source.

Key:
Tet(55) [1] = molecular target: T1, Tet(55) (Unknown prokaryotic organism, UniProt A0A0H4TXY1); assay: biochemical
Tet(56) [2] = molecular target: T2, Tet(56) (Legionella longbeachae serogroup 1, UniProt D3HKY4); format: biochemical, L. longbeachae; settings: 1 mM anhydrotetracycline, 0.1 mM tetracycline
Tet(55) [3] = molecular target: T1, Tet(55); format: biochemical; settings: 1 mM anhydrotetracycline, 0.1 mM tetracycline
Tet(X) [4] = molecular target: T3, Tet(X) (Bacteroides thetaiotaomicron, UniProt Q93L51); format: biochemical; settings: 1 mM anhydrotetracycline, 0.1 mM tetracycline
Tet(50) [5] = molecular target: T4, Tet(50) (Unknown prokaryotic organism, UniProt A0A059WYP6); assay: biochemical
Tet(47-56) = settings: by Tet(47-56); cited from earlier work
Tet(51) = format: biochemical; settings: 1 mM anhydrotetracycline, 0.1 mM tetracycline
Tet(X) [6] = molecular target: T3, Tet(X); settings: by Tet(X); cited from earlier work
L. longbeacheae = format: cell-based
Tet(55) [7] = molecular target: T1, Tet(55); assay: biochemical; remark: listed apart in the source
Tet(50) [8] = molecular target: T4, Tet(50); format: biochemical; settings: 1 mM anhydrotetracycline, 0.1 mM tetracycline
Tet(56) [9] = molecular target: T2, Tet(56); assay: biochemical

Compound: CN(C)[C@@H]1C(O)=C(C(N)=O)C(=O)[C@@]2(O)C(=O)c3c(cc4c(Cl)ccc(O)c4c3O)C[C@@H]12 [anhydrodemeclocycline, (4S,4aS,12aS)-7-chloro-4-(dimethylamino)-3,10,11,12a-tetrahydroxy-1,12-dioxo-1,4,4a,5,12,12a-hexahydrotetracene-2-carboxamide]
- IC50 (Tet(55) [1]): 9 ± 1 µM

Compound: Cc1c2c(c(O)c3c(O)ccc(I)c13)C(=O)[C@]1(O)C(=O)C(C(N)=O)=C(O)[C@@H](N(C)C)[C@@H]1C2 [anhydroiodotetracycline, (4S,4aS,12aS)-4-(dimethylamino)-3,10,11,12a-tetrahydroxy-7-iodo-6-methyl-1,12-dioxo-1,4,4a,5,12,12a-hexahydrotetracene-2-carboxamide]
- IC50 (Tet(55) [1]): 6 ± 1 µM

Compound: Cc1c2c(c(O)c3c(O)ccc(Cl)c13)C(=O)[C@]1(O)C(=O)C(C(N)=O)=C(O)[C@@H](N(C)C)[C@@H]1C2 [anhydrochlortetracycline, (4S,4aS,12aS)-7-chloro-4-(dimethylamino)-3,10,11,12a-tetrahydroxy-6-methyl-1,12-dioxo-1,4,4a,5,12,12a-hexahydrotetracene-2-carboxamide]
- IC50 (Tet(55) [1]): 9 ± 1 µM

Compound: Cc1c2c(c(O)c3c(O)cccc13)C(=O)[C@]1(O)C(=O)C(C(N)=O)=C(O)[C@@H](N(C)C)[C@@H]1C2 [anhydrotetracycline]
- effect on enzymatic tetracycline degradation (HPLC) (Tet(56) [2]): tetracycline is not degraded
- effect on enzymatic tetracycline degradation (HPLC) (Tet(55) [3]): sufficient to decrease or prevent tetracycline degradation
- effect on enzymatic tetracycline degradation (HPLC) (Tet(X) [4]): able to prevent tetracycline degradation; also recorded: sufficient to decrease or prevent tetracycline degradation
- IC50 (Tet(50) [5]): 83.2 ± 1.2 µM
- enzymatic degradation (Tet(47-56)): not degraded
- effect on enzymatic tetracycline degradation (HPLC) (Tet(51)): sufficient to decrease or prevent tetracycline degradation
- enzymatic degradation (Tet(X) [6]): slowly degraded
- synergy with tetracycline (L. longbeacheae): synergy was not observed
- IC50 (Tet(55) [7]): 25.6 ± 1.2 µM
- effect on enzymatic tetracycline degradation (HPLC) (Tet(50) [8]): sufficient to decrease or prevent tetracycline degradation
- IC50 (Tet(56) [9]): 37.1 ± 1.1 µM
